According to patent US20160002204A1 (Board of Regents, The University of Texas System, priority 2014, published 2016):

Columns and labels:
A549 cells = assay: A549 proliferation (viability) assay, Cell Titer Fluor, 72 hours; type: cell-based; settings: Homo sapiens
Summary of the method: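 Seed A549 at 1000 cells/well and culture 24 h. Add compound (final DMSO 0.5%) and incubate 72 h at 37 °C. Add Cell Titer Fluor, mix 15 min, incubate 30 min, read fluorescence and fit EC50 by four-parameter logistic.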

[1] = target: T1, GLS1 (purified recombinant human GAC) (Homo sapiens, UniProt O94925); assay: GLS1 enzymatic activity assay (dual-coupled, Amplex UltraRed/resorufin); type: biochemical
T1 sequence (O94925 55-598 isoform O94925-3 limits assumed): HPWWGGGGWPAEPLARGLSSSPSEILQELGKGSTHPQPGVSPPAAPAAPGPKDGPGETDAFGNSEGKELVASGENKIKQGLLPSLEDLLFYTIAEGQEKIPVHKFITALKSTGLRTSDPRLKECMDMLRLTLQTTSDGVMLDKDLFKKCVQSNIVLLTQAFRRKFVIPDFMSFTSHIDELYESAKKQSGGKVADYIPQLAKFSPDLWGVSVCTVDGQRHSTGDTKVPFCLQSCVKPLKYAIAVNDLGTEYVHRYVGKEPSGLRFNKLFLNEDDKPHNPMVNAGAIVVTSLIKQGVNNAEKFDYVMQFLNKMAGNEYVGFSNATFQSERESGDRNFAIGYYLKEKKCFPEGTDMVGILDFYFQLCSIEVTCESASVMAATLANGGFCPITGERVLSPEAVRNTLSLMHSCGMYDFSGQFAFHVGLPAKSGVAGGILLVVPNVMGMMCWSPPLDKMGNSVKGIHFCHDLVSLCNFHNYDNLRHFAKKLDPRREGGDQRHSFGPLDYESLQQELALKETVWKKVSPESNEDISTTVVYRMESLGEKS
Summary of the method: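 GAC activity measured by coupling glutamate to glutamate oxidase and HRP, generating resorufin from Amplex UltraRed. Enzyme (2 nM) preincubated with 50 mM potassium phosphate 10 min at room temperature, then inhibitor 10 min; 1 mM glutamine substrate, 1% DMSO. Fluorescence 530/590 nm, kinetic or 20-min endpoint; IC50 from four-parameter logistic fit.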

EC50 (A549 cells) [nM]	IC50 [1] [nM]	SMILES
500 to 5000	100 to 500	O=C(Cc1ccccc1)Nc1ccn(CC(F)CCn2cc(C(=O)NCc3ncccc3F)nn2)c(=O)c1 (centres unmarked) [Example 149, 1-{3-fluoro-4-[2-oxo-4-(2-phenylacetamido)-1,2-dihydropyridin-1-yl]butyl}-N-[(3-fluoropyridin-2-yl)methyl]-1H-1,2,3-triazole-4-carboxamide]
500 to 5000	< 100	O=C(Cc1cccc(OC(F)(F)F)c1)Nc1ccn(CCCCn2cc(C(=O)NCc3ccccn3)nn2)c(=O)c1 [Example 10, 1-(4-(2-oxo-4-(2-(3-(trifluoromethoxy)phenyl)acetamido)pyridin-1(2H)-yl)butyl)-N-(pyridin-2-ylmethyl)-1H-1,2,3-triazole-4-carboxamide]
500 to 5000	100 to 500	O=C(NCc1ccccn1)c1ccn(CCCCn2cc(C(=O)NCc3cccc(OC(F)(F)F)c3)nn2)c(=O)c1 [Example 49, 2-oxo-N-(pyridin-2-ylmethyl)-1-{4-[4-({[3-(trifluoro-methoxy)phenyl]methyl}carbamoyl)-1H-1,2,3-triazol-1-yl]butyl}-1,2-dihydropyridine-4-carboxamide]
< 100	< 100	O=C(Cc1cccc(OC(F)(F)F)c1)Nc1ccc(CCCCn2ccc(NC(=O)Cc3ccccc3)nc2=O)nn1 [Example 75, N-{2-oxo-1-[4-(6-{2-[3-(trifluoro-methoxy)phenyl]acetamido}pyridazin-3-yl)butyl]-1,2-dihydropyrimidin-4-yl}-2-phenylacetamide]
< 100	< 100	CO[C@H](C(=O)Nc1ccn(CCC(F)Cn2cc(C(=O)NCc3cccc(OC(F)(F)F)c3)nn2)c(=O)c1F)c1ccccc1 (stereo partly drawn) [Example 285, 1-(2-fluoro-4-{3-fluoro-4-[(2S)-2-methoxy-2-phenylacetamido]-2-oxo-1,2-dihydropyridin-1-yl}butyl)-N-{[3-(trifluoromethoxy)phenyl]methyl}-1H-1,2,3-triazole-4-carboxamide]
< 100	< 100	CCOC(=O)N1CCC(CC(=O)Nc2ccn(CCC(F)Cn3cc(C(=O)NCc4cc(C(F)(F)F)ccn4)nn3)c(=O)c2F)CC1 (centres unmarked) [Example 324, ethyl 4-{[(3-fluoro-1-{3-fluoro-4-[4-({[4-(trifluoromethyl)pyridin-2-yl]methyl}carbamoyl)-1H-1,2,3-triazol-1-yl]butyl}-2-oxo-1,2-dihydropyridin-4-yl)carbamoyl]methyl}piperidine-1-carboxylate]
100 to 500	< 100	O=C(Cc1cccc(OC(F)(F)F)c1)Nc1ccn(CCCCc2nnc(NC(=O)[C@@H](O)c3ccccc3)s2)c(=O)n1 [Example 80, (2S)-2-hydroxy-N-{5-[4-(2-oxo-4-{2-[3-(trifluoro-methoxy)phenyl]acetamido}-1,2-dihydropyrimidin-1-yl)butyl]-1,3,4-thiadiazol-2-yl}-2-phenylacetamide]
< 100	< 100	O=C(Nc1ccn(CCC(F)Cn2cc(C(=O)NCc3cccc(OC(F)(F)F)c3)nn2)c(=O)c1F)OC1CCCCC1 (centres unmarked) [Example 346, cyclohexyl N-(3-fluoro-1-{3-fluoro-4-[4-({[3-(trifluoro-methoxy)phenyl]methyl}carbamoyl)-1H-1,2,3-triazol-1-yl]butyl}-2-oxo-1,2-dihydropyridin-4-yl)carbamate]
500 to 5000	100 to 500	O=C(Cc1ccccc1)Nc1ccn(CCC(F)Cn2cc(C(=O)NCC3CCCC3)nn2)c(=O)c1F (centres unmarked) [Example 381, N-(cyclopentylmethyl)-1-{2-fluoro-4-[3-fluoro-2-oxo-4-(2-phenylacetamido)-1,2-dihydropyridin-1-yl]butyl}-1H-1,2,3-triazole-4-carboxamide]
< 100	< 100	C[C@@H]1CCN(C(=O)C(=O)Nc2ccn(CCC(F)Cn3cc(C(=O)NCc4cc(OC(F)(F)F)ccc4F)nn3)c(=O)c2F)C1 (stereo partly drawn) [Example 431, 1-[2-fluoro-4-(3-fluoro-4-{2-[(3R)-3-methylpyrrolidin-1-yl]-2-oxoacetamido}-2-oxo-1,2-dihydropyridin-1-yl)butyl]-N-{[2-fluoro-5-(trifluoromethoxy)phenyl]methyl}-1H-1,2,3-triazole-4-carboxamide]
100 to 500	< 100	O=C(NCc1cccc(OC(F)(F)F)c1)c1ccn(CCCCn2cc(C(=O)NCc3cccc(OC(F)(F)F)c3)nn2)c(=O)c1 [Example 59, 2-oxo-N-{[3-(trifluoromethoxy)phenyl]methyl}-1-{4-[4-({[3-(trifluoro-methoxy)phenyl]methyl}carbamoyl)-1H-1,2,3-triazol-1-yl]butyl}-1,2-dihydropyridine-4-carboxamide]
500 to 5000	< 100	O=C(Cc1cccnc1)Nc1ccn(CCC(F)Cn2cc(C(=O)NCc3cccc(OC(F)(F)F)c3)nn2)c(=O)c1 (centres unmarked) [Example 246, 1-(2-fluoro-4-{2-oxo-4-[2-(pyridin-3-yl)acetamido]-1,2-dihydropyridin-1-yl}butyl)-N-{[3-(trifluoromethoxy)phenyl]methyl}-1H-1,2,3-triazole-4-carboxamide]
500 to 5000	100 to 500	CC(C)C(=O)Nc1ccn(CCCCn2cc(C(=O)NCc3cccc(OC(F)(F)F)c3)nn2)c(=O)c1 [Example 54, 1-{4-[4-(2-methylpropanamido)-2-oxo-1,2-dihydropyridin-1-yl]butyl}-N-{[3-(trifluoromethoxy)phenyl]methyl}-1H-1,2,3-triazole-4-carboxamide]
500 to 5000	100 to 500	O=C(Cc1ccccc1)Nc1ccn(CCCCc2nnc(C(=O)NCc3ccccn3)s2)c(=O)c1 [Example 445, 5-{4-[2-oxo-4-(2-phenylacetamido)-1,2-dihydropyridin-1-yl]butyl}-N-(pyridin-2-ylmethyl)-1,3,4-thiadiazole-2-carboxamide]
< 100	< 100	O=C(Cc1cccc(OC(F)(F)F)c1)Nc1ccc(CCCCn2ccc(NC(=O)Cc3cccnc3)nc2=O)nn1 [Example 116, N-[6-(4-{2-oxo-4-[2-(pyridin-3-yl)acetamido]-1,2-dihydropyrimidin-1-yl}butyl)pyridazin-3-yl]-2-[3-(trifluoromethoxy)phenyl]acetamide]
> 5000	< 100	O=C(Cc1cccnc1)Nc1ccn(CCCCc2nnc(NC(=O)Cc3ccccc3)s2)c(=O)n1 [Example 82, N-[5-(4-{2-oxo-4-[2-(pyridin-3-yl)acetamido]-1,2-dihydropyrimidin-1-yl}butyl)-1,3,4-thiadiazol-2-yl]-2-phenylacetamide]
100 to 500	< 100	O=C(Cc1ccccc1)Nc1ccn(CCC(F)Cn2cc(C(=O)NCc3ccc(C(F)(F)F)cn3)nn2)c(=O)c1F (centres unmarked) [Example 379, 1-{2-fluoro-4-[3-fluoro-2-oxo-4-(2-phenylacetamido)-1,2-dihydropyridin-1-yl]butyl}-N-{[5-(trifluoromethyl)pyridin-2-yl]methyl}-1H-1,2,3-triazole-4-carboxamide]
< 100	< 100	CCOC(=O)N1CCC(CC(=O)Nc2ccn(CCC(F)Cn3cc(C(=O)NCc4cccc(OC(F)(F)F)c4)nn3)c(=O)c2)CC1 (centres unmarked) [Example 281, ethyl 4-{[(1-{3-fluoro-4-[4-({[3-(trifluoromethoxy)phenyl]methyl}carbamoyl)-1H-1,2,3-triazol-1-yl]butyl}-2-oxo-1,2-dihydropyridin-4-yl)carbamoyl]methyl}piperidine-1-carboxylate]
100 to 500	< 100	CO[C@H](C(=O)Nc1ccn(CCC(F)Cn2cc(C(=O)NCc3ccc(C)nc3)nn2)c(=O)c1F)c1ccccc1 (stereo partly drawn) [Example 312, 1-(2-fluoro-4-{3-fluoro-4-[(2S)-2-methoxy-2-phenylacetamido]-2-oxo-1,2-dihydropyridin-1-yl}butyl)-N-[(6-methylpyridin-3-yl)methyl]-1H-1,2,3-triazole-4-carboxamide]
< 100	< 100	C[C@H](C(=O)Nc1ccn(CCC(F)Cn2cc(C(=O)NCc3ccc(C(F)(F)F)nc3)nn2)c(=O)c1F)c1ccccc1 (stereo partly drawn) [Example 368, 1-(2-fluoro-4-{3-fluoro-2-oxo-4-[(2S)-2-phenylpropanamido]-1,2-dihydropyridin-1-yl}butyl)-N-{[6-(trifluoromethyl)pyridin-3-yl]methyl}-1H-1,2,3-triazole-4-carboxamide]
> 5000	500 to 5000	Cc1ccn(CCCCn2cc(C(=O)NCc3cccc(OC(F)(F)F)c3)nn2)c(=O)c1 [Example 11, 1-(4-(4-methyl-2-oxopyridin-1(2H)-yl)butyl)-N-(3-(trifluoromethoxy)benzyl)-1H-1,2,3-triazole-4-carboxamide]
> 5000	500 to 5000	CC(=O)Nc1ccn(CCCCn2cc(C(=O)NCc3cccc(OC(F)(F)F)c3)nn2)c(=O)c1 [Example 50, 1-[4-(4-acetamido-2-oxo-1,2-dihydropyridin-1-yl)butyl]-N-{[3-(trifluoromethoxy)phenyl]methyl}-1H-1,2,3-triazole-4-carboxamide]
